Here are results for two compounds from patent publication EP0540859B1, “Anthracycline prodrugs” (Bristol-Myers Squibb Company, priority 1987, dated 1989).

Each structure is given as a SMILES string. Where only a bound is given, the exact number is not on record here.

Series [1] concerns calf intestinal or human placental AP. Nature of the series: Reactivity of MOP with AP (HPLC). The series is classed as biochemical. The following applies: MOP 1 mM, AP 1 µg/ml, 100 mM Tris pH 7.2, room temperature. The method, then:
The MOP prodrug was then tested for its reactivity with AP. […] The course of the reaction was monitored by HPLC using a C-18 column (4.6 x 150 mm) and the following conditions: detection at 280 nm; 30-95% methanol in acetate buffer (100 mM, pH 5.2) over 8 min, re-equilibration after 15 min; 0.8 ml/min flow rate. Under these conditions, MMC eluted at 7.0 min, MOH eluted at 8.5 min, and MOP eluted 4.0 min. […] HPLC served to confirm that the corresponding alcohol, MOH, was formed. Under the reaction conditions used, the half life for hydrolysis of MOP was about 10 min and the reaction went to completion within 40 min.

For series [2], the system named is H2981 tumor. Kind of series: In vivo antitumor effect, conjugate/mitomycin prodrug and MOP/EP combinations, s.c. H2981 tumor. Also noted: species or system nude Balb C nu/nu female mice. As to the method:
Therapy studies were then performed on nude Balb C nu/nu female mice (6 mice per treatment group) (4-6 wk old) obtained from Life Sciences (St. Petersburg, Fla.) that had been implanted (s.c., right hind flank) with a H2981 tumor obtained from in vivo sourcing. The experiments were run when the tumors reached approximately 100 mm^3 in volume. The L6-AP and 1F5-AP conjugates (0.1 ml containing 250 µg antibody in PBS) were each administered (i.p.) 18-24 h prior to treatment with MOP (0.2 ml containing 0.6 mg MOP in H2O). Tumor growth was compared to that observed in untreated mice and in mice treated with maximum tolerated doses of MOP (0.2 ml containing 0.6 mg MOP in H2O) or MOH (0.2 ml containing 0.2 mg MOH in H2O) alone.
The prodrugs, EP and MOP, were prepared as described in Examples 1 and 2, respectively. Preparation of the L6-AP and 1F5-AP immunoconjugates is described in Example 1. The in vivo studies on nude mice were carried out as described in Examples 1 and 2 above. Thus, nude mice that had been implanted with a H2981 tumor were pre-exposed to the L6-AP or 1F5-AP conjugate 18-24 h prior to treatment with a combination of MOP/EP (0.2 ml containing 1 mg EP and 0.3 mg MOP in H2O). Tumor growth was compared to that observed in untreated mice and in mice treated with the MOP/EP combination alone.

Series [3] concerns H2981 tumor cells. The following applies: at 10 µM, H2981 cells.
The nature of series [4]: Relative toxicities of MOH and MOP in mice. More on the design: species or system Balb C nu/nu mice. The following applies: mouse, in vivo, ip. The method, then: Prior to investigating the in vivo antitumor activity of MOP in combination with the L6-AP conjugate the relative toxicities of the prodrug and its released active derivative, MOH, were determined in Balb C nu/nu mice. […] Total amounts of up to 40 mg/kg of MOH and 100 mg/kg of MOP were well tolerated if given in 4 equal doses over a 25 day period.

Series [5] has as its system H2981 tumor cells. Nature of the series: 3H-thymidine uptake assay on H2981 cells, PVA conjugates with APO. The following applies: Homo sapiens; H2981 cells untreated with any conjugate. The series is classed as cell-based. As to the method: The in vitro cytotoxic effect of the antibody-PVA/ adriamycin prodrug combination of the invention toward H2981 tumor cells was measured using the ^3H-thymidine uptake assay described in Examples 1 and 2 above. Briefly, the H2981 tumor cells were plated into 96-well microtiter plates in IMDM (10,000 cells/well) and were allowed to attached for 18 h at 37°C. The antibody-PVA conjugates, L6-PVA or 1F5-PVA, were then added at a concentration of 10 µg/ml of antibody and the plates were incubated for 30 min at 4°C. The wells were then washed four times with IMDM and APO was added at varying concentrations in IMDM. After two h, the wells were again washed, IMDM was added and the cells were left for 18 h at 37°C. At that point, ^3H-thymidine was added (1 µCi per well) and after 6 h, the plates were frozen at -70°C to detach the cells. After thawing, the cells were harvested onto glass fiber filters. The incorporation of ^3H-thymidine was measured in a Beckman 3801 scintillation counter and compared to cells treated with APO or adriamycin (ADM) alone.

Series [6] concerns Daudi cells. Kind of series: 3H-thymidine assay on Daudi cells, PVA conjugates with APO. The series is classed as cell-based. To be noted: Figure 25. As to the method: The ^3H-thymidine assay was performed essentially as described in the examples above with slight modifications due to the fact that the Daudi cells are non-adherent. Thus, approximately 250,000 Daudi cells in IMDM were plated into each well of a 96-well microtiter plate and the antibody-enzyme conjugate added. The reaction mixture was incubated at 4°C for 30 min. Unbound antibody-enzyme conjugate was removed by centrifuging at 500 x g for 5 min and removing the supernatant. The cells were resuspended in IMDM and the washing procedure was repeated three times to remove all unbound conjugate. APO in IMDM was then added for 2 h and washed once as described above. The remainder of the assay was performed as described in the examples above.

The mark [7] stands for this setting: by day 63, mitomycin derivatives (Table 3).

Consider `CO[C@@]12[C@H](COC(N)=O)C3=C(C(=O)C(C)=C(NCCOP(=O)(O)O)C3=O)N1C[C@@H]1N[C@@H]12` [MOP, 7-(2'-aminoethyl phosphate)mitomycin], for which the “time for the reaction to go to completion” value in series [1] is reported as no more than 40 min. Besides, the “antitumor activity in vivo” value in series [2] (Figures 18 and 19, conjugates 18-24 h prior to prodrug) was “significant antitumor activities in vivo”. Moreover, in series [2] (H2981 tumor, maximum tolerated doses), the “time required to reach an average tumor volume of 750 mm^3” value is given as 63 days. In addition, in series [2] (setting [7]), the “TUMOR RESPONSES PROGRESSION” value is 4/5 and the “TUMOR RESPONSES STABLE” value is on record as 1/5. This compound displayed a cell kill in series [3] of 5%. Besides, the LD50 in series [4] (two equal doses spaced 4 days apart) turned out to be 90 mg/kg. Also, the MTD in series [4] (given in 4 equal doses over a 25 day period, read-out: total amounts well tolerated) was no more than 100 mg/kg.
Consider `COc1cccc2c1C(=O)c1c(O)c3c(c(O)c1C2=O)C[C@@](O)(C(=O)CO)C[C@@H]3O[C@H]1C[C@H](N)[C@H](O)[C@H](C)O1` [adriamycin, reference compound], for which, in series [5], the IC50 stood at 0.038 µM. Further, the “cytotoxicity on Daudi cells” value in series [6] is given as “significantly more toxic than APO”.

As a reminder, the LD50 is the dose at which mortality reaches 50%. The term IC50 denotes the concentration that gives 50% inhibition.
